Source: US20240277713A1 (Kadmon Corporation, LLC, priority 2022, published 2024)

Legend:
[1] = target: T1, UGT1A9 (Homo sapiens, UniProt O60656); assay: Enzyme systems in vitro: UGT1A9; format: in vitro ADME
T1 sequence (O60656 26-530): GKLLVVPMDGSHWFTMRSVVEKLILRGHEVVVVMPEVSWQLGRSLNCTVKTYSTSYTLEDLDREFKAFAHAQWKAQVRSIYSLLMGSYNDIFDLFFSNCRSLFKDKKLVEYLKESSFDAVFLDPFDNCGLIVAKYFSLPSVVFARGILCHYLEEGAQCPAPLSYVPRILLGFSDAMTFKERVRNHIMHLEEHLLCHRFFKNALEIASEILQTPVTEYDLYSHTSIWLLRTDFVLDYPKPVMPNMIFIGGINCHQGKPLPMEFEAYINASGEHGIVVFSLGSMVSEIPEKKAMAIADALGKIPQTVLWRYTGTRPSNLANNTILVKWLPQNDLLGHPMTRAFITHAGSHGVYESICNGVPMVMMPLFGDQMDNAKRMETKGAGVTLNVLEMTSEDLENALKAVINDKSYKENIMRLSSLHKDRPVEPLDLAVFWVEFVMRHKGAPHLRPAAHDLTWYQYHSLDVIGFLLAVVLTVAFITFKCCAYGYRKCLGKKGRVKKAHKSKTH

[2] = Toxicokinetics in pregnant Sprague-Dawley rats (Example 1); format: in vivo, rat; conditions: female, Sprague-Dawley, rat, in vivo, po, 25 mg base/kg/day
[3] = target: P-gp (Homo sapiens, UniProt P08183); assay: Transporter systems in vitro: P-gp; format: in vitro ADME
Chain of P-gp (P08183 whole entry): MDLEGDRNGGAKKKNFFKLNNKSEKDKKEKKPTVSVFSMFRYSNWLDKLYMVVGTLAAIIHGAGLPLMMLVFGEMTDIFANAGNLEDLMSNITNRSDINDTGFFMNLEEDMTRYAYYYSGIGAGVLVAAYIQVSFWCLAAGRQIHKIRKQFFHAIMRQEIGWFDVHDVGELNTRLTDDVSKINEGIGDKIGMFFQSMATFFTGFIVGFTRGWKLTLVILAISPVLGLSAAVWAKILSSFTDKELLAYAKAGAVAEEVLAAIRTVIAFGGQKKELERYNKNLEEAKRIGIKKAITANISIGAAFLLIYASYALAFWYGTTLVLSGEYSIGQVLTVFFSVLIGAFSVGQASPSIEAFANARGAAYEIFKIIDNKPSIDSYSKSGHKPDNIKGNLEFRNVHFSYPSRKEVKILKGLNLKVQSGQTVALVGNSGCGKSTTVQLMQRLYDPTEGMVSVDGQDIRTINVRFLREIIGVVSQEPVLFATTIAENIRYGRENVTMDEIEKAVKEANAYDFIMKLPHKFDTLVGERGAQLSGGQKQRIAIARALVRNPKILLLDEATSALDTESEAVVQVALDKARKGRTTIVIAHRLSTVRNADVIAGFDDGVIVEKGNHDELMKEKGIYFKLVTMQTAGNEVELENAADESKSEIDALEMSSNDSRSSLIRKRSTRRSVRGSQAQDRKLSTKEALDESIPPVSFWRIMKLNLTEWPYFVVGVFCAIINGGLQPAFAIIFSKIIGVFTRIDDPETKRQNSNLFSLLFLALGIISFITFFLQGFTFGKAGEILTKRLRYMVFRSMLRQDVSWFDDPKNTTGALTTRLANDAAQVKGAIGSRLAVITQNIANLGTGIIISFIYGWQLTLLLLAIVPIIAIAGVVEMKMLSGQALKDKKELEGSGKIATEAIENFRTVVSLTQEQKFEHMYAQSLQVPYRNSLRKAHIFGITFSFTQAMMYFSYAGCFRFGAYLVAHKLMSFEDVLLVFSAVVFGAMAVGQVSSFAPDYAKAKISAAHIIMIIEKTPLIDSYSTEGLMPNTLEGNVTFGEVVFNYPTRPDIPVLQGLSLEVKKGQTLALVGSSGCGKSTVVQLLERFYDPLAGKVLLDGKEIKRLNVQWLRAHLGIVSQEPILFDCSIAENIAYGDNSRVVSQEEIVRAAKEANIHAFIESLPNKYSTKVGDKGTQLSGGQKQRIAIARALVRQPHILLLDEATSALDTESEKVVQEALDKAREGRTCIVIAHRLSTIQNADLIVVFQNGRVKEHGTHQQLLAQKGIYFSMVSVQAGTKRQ

[4] = test system: rat bone marrow; assay: in vivo rat bone marrow micronucleus assay
[5] = target: CYP2D6 (Homo sapiens, UniProt P10635); assay: Enzyme systems in vitro: CYP2D6; format: in vitro ADME
Chain of CYP2D6 (P10635 whole entry): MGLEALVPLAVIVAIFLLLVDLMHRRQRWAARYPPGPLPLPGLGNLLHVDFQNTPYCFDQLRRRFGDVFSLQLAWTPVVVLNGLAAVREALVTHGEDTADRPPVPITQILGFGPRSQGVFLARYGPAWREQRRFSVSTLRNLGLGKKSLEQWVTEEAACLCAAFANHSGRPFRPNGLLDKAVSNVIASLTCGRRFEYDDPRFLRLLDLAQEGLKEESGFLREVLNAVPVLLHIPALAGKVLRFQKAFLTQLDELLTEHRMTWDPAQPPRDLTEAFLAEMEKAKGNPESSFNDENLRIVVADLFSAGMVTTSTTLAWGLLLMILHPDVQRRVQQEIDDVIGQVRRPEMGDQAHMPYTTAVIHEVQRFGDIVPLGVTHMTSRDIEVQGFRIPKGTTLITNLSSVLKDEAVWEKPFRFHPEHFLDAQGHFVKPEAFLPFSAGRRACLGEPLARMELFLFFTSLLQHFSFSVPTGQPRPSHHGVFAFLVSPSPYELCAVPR

[6] = target: CYP3A4, CYP2C8, CYP2D6, and UGT1A9 (Homo sapiens, UniProt P08684); assay: Metabolism in vitro; format: in vitro ADME
Chain of CYP3A4, CYP2C8, CYP2D6, and UGT1A9 (Homo sapiens, UniProt P08684) (P08684 2-503): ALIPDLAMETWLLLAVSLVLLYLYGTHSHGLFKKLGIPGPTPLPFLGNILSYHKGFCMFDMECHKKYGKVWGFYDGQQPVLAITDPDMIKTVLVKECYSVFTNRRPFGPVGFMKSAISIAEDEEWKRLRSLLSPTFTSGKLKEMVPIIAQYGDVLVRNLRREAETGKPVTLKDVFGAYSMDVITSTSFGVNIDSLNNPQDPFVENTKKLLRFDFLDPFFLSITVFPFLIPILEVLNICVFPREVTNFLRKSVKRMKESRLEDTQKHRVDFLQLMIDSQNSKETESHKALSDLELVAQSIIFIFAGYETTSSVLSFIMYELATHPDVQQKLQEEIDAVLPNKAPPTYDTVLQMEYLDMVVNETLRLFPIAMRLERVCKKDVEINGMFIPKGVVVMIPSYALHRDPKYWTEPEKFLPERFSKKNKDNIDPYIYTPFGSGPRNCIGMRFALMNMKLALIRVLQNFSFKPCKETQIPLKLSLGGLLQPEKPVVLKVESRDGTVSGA

[7] = test system: CYP3A4, CYP2C8, CYP2D6, and UGT1A9; assay: Metabolism in vitro; format: in vitro ADME
[8] = target: T2, UGT1A1 (Homo sapiens, UniProt P22309); assay: Enzyme systems in vitro: UGT1A1; format: in vitro ADME
T2 sequence (P22309 26-533): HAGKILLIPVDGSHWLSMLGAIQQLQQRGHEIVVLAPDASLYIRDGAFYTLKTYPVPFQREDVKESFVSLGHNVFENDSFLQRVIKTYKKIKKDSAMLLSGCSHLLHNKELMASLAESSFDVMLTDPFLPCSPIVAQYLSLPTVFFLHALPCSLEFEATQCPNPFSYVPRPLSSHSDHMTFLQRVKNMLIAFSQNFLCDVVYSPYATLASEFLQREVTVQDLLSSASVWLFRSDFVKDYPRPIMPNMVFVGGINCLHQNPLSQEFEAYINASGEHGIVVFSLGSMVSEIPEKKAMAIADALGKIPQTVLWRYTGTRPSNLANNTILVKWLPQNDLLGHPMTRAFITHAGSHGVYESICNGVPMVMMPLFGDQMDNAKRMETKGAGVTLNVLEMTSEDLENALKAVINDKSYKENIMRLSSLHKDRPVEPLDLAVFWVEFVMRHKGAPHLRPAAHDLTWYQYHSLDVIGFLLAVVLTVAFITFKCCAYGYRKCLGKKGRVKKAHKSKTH

[9] = Toxicokinetic evaluation in pregnant rats (Example 3); format: in vivo, rat; conditions: for Cmax / AUC(0-t): female, Sprague-Dawley, rat, plasma, po; for AUC(0-t): read-out: Mean AUC0-24 in plasma of pregnant rats
Text: Animals received in-life and postmorten evaluations.

[10] = Toxicokinetics in pregnant New Zealand White rabbits (Example 2); format: in vivo, rabbit; conditions: female, New Zealand White, rabbit, in vivo, po; for AUC(0-t): read-out: maternal AUC0-24; for Cmax: read-out: maternal Cmax
Procedure: The study was conducted in two phases: Phase A was a dose range finding tolerance study with non-pregnant rabbits, and Phase B was the pilot developmental toxicity study.
All fetuses were given the appropriate external examination.

[11] = test system: Sprague-Dawley rats; assay: Fertility and early embryonic development to implantation study in Sprague-Dawley rats (Example 5)
Text: This study design used naive animals of both sexes, incorporated treatment of both sexes, and provided for a recovery period for the treated males based on study outcome.
Male and female Sprague-Dawley (SD) rats were obtained from Charles River Laboratories, Raleigh, North Carolina (approximately 7 to 10 weeks of age). Using a standard, by weight, randomization procedure, 273 male and 273 female animals (weighing 229 to 497 g and 169 to 242 g, respectively, at randomization) were assigned to control, treatment, and toxicokinetic (TK) groups. The dose volume for each group was 10 mL/kg providing a dose concentration in mg/base/mL of one tenth the dose level). (In Table 24, T=Treated; U=Untreated).
Dosing began at 11 weeks of age and 70 days prior to pairing (with untreated females) for the treated males, and 14 days prior to pairing (with untreated males) for the treated females. Dosing of the males continued through the mating and postmating period to euthanasia, while dosing of the females continued through the mating period to GD 7. Females with no evidence of mating were dosed for 7 days following completion of the mating period. Males designated for the recovery phase were dosed for 70 days, and then received a 77 day recovery period.
Animals were observed cageside, for detailed clinical changes, body weights, food consumption, estrous cycle determinations, plasma analysis, sperm analysis, toxicokinetic analysis, and anatomical pathology including uterine and ovarian examinations.
Cageside observations were made at least twice daily.
Detailed clinical observations were made during treatment phases: for males, twice weekly during treatment (4 hours+/−1 hour on dosing days), and for females, daily during treatment (4 hours+/−1 hour on dosing days). During non-treatment phases (males and females), detailed clinical observations occurred weekly and also prior to the scheduled uterine examination (females) on GD 13.
For each endpoint, treatment groups were compared to the control group using the analysis outlined in Table 25. Data for some endpoints, as indicated, were transformed by an arcsin-square root transformation prior to conducting the specified analysis.

[12] = 15 mg/kg/day, GD 6, belumosudil 15 mg base/kg oral
[13] = 15 mg/kg/day, GD 17, belumosudil 15 mg base/kg oral
[14] = 50 mg/kg/day, GD 6, belumosudil 50 mg base/kg oral
[15] = 50 mg/kg/day, GD 17, belumosudil 50 mg base/kg oral
[16] = 150 mg/kg/day, GD 6, belumosudil 150 mg base/kg oral
[17] = 150 mg/kg/day, GD 17, belumosudil 150 mg base/kg oral

For CC(C)NC(=O)COc1cccc(-c2nc(Nc3ccc4[nH]ncc4c3)c3ccccc3n2)c1 [belumosudil, 2-{3-[4-(1H-indazol-5-ylamino)-2-quinazolinyl]phenoxy}-N-(propan-2-yl) acetamide], the UGT1A9 inhibition [1] was “inhibitor”, the AUC(0-t) ([2]; read-out: maternal AUC0-24) was 20400 ng·h/mL and the Cmax ([2]; read-out: maternal Cmax) was 1800 ng/mL. The P-gp substrate status [3] was “substrate of P-gp”, the P-gp inhibition ([3]; clinically relevant concentrations) was “inhibits” and the “genotoxicity, bone marrow micronucleus assay” value [4] was “not genotoxic”. The CYP2D6 inhibition [5] was “inhibitor”, the primary metabolizing enzyme [6] was “primarily metabolized by CYP3A4” and the minor metabolizing enzymes [7] was “to a lesser extent by CYP2C8, CYP2D6, and UGT1A9”. The UGT1A1 inhibition [8] was “inhibitor”, the Cmax [9, 12] was 1530 ng/mL and the AUC(0-t) [9, 12] was 9750 ng·h/mL. For the same molecule, the Cmax [9, 13] was 1320 ng/mL, the AUC(0-t) [9, 13] was 11900 ng·h/mL and the Cmax [9, 14] was 3000 ng/mL. For the same molecule, the AUC(0-t) [9, 14] was 37700 ng·h/mL, the Cmax [9, 15] was 4360 ng/mL and the AUC(0-t) [9, 15] was 33300 ng·h/mL. The Cmax [9, 16] was 5150 ng/mL, the AUC(0-t) [9, 16] was 89400 ng·h/mL and the Cmax [9, 17] was 7800 ng/mL. The AUC(0-t) [9, 17] was 88300 ng·h/mL, the “accumulation after multiple dosing of belumosudil” value ([9]; pregnant rats) was “No apparent accumulation” and the AUC(0-t) ([10]; 50 mg/kg/day) was 2480 ng·h/mL. It also gave a Cmax ([10]; 50 mg/kg/day) of 621 ng/mL, an AUC(0-t) ([10]; 250 mg/kg/day) of 15600 ng·h/mL and a Cmax ([10]; 250 mg/kg/day) of 2100 ng/mL. The “NOAEL for female reproductive performance and fertility” value ([11]; female rats) was 275 mg base/kg/day, the “dose with adverse findings in female rats (increased pre- or post-implantation loss, decreased number of viable embryos)” value ([11]; female, Sprague-Dawley, rat, in vivo) was 275 mg/kg/day and the “NOAEL for general toxicity endpoints” value ([11]; male and female rats) was 50 mg base/kg/day. The “NOAEL for male reproductive performance and fertility” value ([11]; male rats) was 150 mg base/kg/day, the “dose in male rats with abnormal sperm findings and testes/epididymis organ changes” value ([11]; male, Sprague-Dawley, rat, in vivo, po) was 275 mg/kg/day and the “reproductive and fertility indices, treated females” value ([11]; rat, in vivo) was “unaffected”. For the same molecule, the “NOAEL for ovarian and uterine parameters” value ([11]; treated females) was 150 mg base/kg/day.
